# Experiments:
# mPIEZO1 [1] = molecular target: T1, mPIEZO1 (Mus musculus, UniProt E2JF22); assay: Intracellular Ca2+ measurement (Fura-2) in mPIEZO1-TREx cells; format: cell-based; details: for Peak ΔCa2+i (ΔF340/380), median fold difference compared to Yoda1: 10 μM compound, mPIEZO1-TREx cells, paired with 10 μM Yoda1; for Ca2+ response (agonist effect): 10 μM, cells overexpressing mPIEZO1, compared with Yoda1; for EC50: overexpressed mouse PIEZO1, calcium assays
# T1 construct: expressed in transfected cells
# T1 sequence (E2JF22 whole entry): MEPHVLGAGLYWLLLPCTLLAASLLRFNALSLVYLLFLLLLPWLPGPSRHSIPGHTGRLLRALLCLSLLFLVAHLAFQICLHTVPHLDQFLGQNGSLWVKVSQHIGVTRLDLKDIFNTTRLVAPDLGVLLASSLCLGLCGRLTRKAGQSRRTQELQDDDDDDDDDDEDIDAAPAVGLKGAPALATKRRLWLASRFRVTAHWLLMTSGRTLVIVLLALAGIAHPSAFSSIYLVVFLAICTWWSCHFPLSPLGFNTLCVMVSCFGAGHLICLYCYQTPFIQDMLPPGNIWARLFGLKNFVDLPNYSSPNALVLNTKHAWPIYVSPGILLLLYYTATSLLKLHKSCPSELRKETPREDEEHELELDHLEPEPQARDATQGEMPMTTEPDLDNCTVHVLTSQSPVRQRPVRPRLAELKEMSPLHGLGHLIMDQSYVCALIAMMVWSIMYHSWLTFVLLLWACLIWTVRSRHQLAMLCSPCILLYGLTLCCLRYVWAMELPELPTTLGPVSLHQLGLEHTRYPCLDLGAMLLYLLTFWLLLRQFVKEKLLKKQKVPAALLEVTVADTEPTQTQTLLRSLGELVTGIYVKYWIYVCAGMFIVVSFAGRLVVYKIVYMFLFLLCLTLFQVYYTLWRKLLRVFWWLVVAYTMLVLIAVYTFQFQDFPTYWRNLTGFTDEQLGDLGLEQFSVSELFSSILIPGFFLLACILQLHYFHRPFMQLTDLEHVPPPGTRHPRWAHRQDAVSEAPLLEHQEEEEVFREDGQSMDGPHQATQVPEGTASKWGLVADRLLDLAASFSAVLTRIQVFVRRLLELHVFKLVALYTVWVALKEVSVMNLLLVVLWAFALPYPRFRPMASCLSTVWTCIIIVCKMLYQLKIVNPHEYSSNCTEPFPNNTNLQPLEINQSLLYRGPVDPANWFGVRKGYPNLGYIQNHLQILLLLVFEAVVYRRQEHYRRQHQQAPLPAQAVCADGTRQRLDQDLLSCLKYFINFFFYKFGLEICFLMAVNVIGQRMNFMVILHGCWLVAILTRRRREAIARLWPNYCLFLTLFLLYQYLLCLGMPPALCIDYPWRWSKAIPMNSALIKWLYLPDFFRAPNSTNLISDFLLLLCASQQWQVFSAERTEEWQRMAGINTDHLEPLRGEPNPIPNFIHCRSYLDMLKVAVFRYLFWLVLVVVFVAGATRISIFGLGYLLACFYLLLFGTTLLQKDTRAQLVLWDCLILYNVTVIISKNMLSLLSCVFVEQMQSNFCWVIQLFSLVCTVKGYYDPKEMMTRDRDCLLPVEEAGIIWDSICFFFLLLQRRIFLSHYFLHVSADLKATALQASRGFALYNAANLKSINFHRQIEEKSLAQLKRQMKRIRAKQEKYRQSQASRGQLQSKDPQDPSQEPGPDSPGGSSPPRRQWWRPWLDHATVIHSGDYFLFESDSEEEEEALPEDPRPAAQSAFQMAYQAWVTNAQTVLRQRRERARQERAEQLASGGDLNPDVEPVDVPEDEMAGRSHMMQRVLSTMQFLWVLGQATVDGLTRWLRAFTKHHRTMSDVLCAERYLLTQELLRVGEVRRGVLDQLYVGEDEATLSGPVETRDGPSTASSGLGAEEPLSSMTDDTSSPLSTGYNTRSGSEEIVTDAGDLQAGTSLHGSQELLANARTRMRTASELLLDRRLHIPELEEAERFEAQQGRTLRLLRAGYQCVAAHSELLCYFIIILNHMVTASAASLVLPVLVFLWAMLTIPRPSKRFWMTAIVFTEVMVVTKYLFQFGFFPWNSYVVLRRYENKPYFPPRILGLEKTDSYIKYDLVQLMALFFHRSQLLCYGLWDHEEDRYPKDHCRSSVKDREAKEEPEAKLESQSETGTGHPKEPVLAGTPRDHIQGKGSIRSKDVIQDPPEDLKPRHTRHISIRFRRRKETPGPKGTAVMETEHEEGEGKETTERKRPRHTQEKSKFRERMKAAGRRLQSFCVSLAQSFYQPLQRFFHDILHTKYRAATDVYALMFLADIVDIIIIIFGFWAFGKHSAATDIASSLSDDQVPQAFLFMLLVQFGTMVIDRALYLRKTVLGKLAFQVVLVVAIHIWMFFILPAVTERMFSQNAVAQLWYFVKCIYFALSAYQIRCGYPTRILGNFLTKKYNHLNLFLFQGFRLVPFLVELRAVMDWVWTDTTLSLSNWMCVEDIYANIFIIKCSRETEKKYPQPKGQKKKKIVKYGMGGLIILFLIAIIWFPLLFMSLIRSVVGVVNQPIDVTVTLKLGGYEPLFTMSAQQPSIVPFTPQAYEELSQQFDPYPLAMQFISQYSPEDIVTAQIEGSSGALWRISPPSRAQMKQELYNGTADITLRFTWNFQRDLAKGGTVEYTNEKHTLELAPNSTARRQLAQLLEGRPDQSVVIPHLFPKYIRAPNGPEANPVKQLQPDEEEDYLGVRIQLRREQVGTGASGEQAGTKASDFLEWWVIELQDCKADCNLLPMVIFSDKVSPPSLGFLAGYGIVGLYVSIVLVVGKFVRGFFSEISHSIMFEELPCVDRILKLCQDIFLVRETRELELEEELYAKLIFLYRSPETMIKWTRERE
# From the text: HEK T‐REx™ cells that constitutively overexpress murine PIEZO1 were generated as previously described (Blythe et al., [2019]). pcDNA3 mouse PIEZO1 (mPIEZO1) IRES green fluorescent protein (GFP), a gift from Ardem Patapoutian (Coste et al., [2010]), was used as a template to clone the mPIEZO1 coding sequence into pcDNA4/TO. Overlapping mPIEZO1 (forward primer 5′‐[…]‐3′ and reverse primer 5′‐[…]‐3′) and pcDNA4/TO (forward primer 5′‐[…]‐3′ and reverse primer 5′‐[…]‐3′) PCR products were assembled using Gibson Assembly (New England Biolabs). […] HEK T‐REx™ 293 cells were transfected with pcDNA4/TO‐mPIEZO1 using Lipofectamine 2000 (Invitrogen) and treated with 200 μg·ml^−1 zeocin to select stably transfected cells. Individual clones were isolated and analysed for expression using Yoda1 and intracellular Ca^2+ measurements. These cells are referred to as mPIEZO1‐TREx.
# (§1) HEK 293‐TREx cells and their stably transfected derivatives or transiently transfected HEK 293 or HeLa cells were seeded at a density of 7.5 × 10^4 cells per well into poly‐D‐lysine‐coated 96‐well plates. The plates were either commercially pre‐coated with poly‐D‐lysine (Greiner Bio‐One #655946) or (Greiner Bio‐One #655090) were coated in‐house with 35 μl of a 10 μg·ml^−1 poly‐D‐lysine (Bio‐Techne, Cultrex # 3439‐100‐01) in sterile deionised water per well for at least 24 h and rinsed three times with 100 μl per well sterile D‐PBS before addition of cells. HUVECs were seeded into tissue culture‐treated 96‐well plates (Greiner Bio‐One #655090) at a density of either 2.5 × 10^4 cells 24 h before experimentation or 1.25 × 10^4 cells 48 h before experimentation. Cells were incubated with 2 μM Fura‐2‐AM (Molecular Probes™) in the presence of 0.01% (wt./vol.) pluronic F127 (Sigma‐Aldrich #P2443) in standard bath solution (SBS) for 1 h at 37°C. Cells were washed with SBS for 30 min at room temperature. Alternatively, if inhibitors were being tested, these were added at this time, immediately following a wash in SBS. (−)‐Englerin A (Akbulut et al., [2015]) was used in SBS containing 0.01% pluronic acid as a dispersing agent to minimise aggregation of compound. Unless otherwise stated, the final concentration of DMSO was 0.2% (vol./vol). Working 2000× stock solutions of test compounds were freshly made in DMSO and diluted 1000‐fold in SBS during the 30 min SBS wash/inhibitor pre‐incubation period to obtain 2× solutions for injection. When testing the highest concentration of Yoda1, KC159 and KC289 (30 μM), the final DMSO concentration was 0.6% (vol./vol.). Measurements were made at room temperature on a 96‐well fluorescence plate reader (FlexStation 3, Molecular Devices, Sunnyvale, CA, USA) controlled by SoftMax Pro software v7.0.3. Recipient wells containing 80 μl SBS/0.2% (vol./vol.) DMSO vehicle or inhibitor compound received 80 μl 2× compound at an injection rate of 1 μl·s^−1, and the pipette introduced liquids from a height setting of 70 μl. No trituration was performed. For recordings using Fura‐2, the change in intracellular Ca was indicated as the ratio of Fura‐2 emission (510 nm) intensities at 340 and 380 nm excitation. Photomultipliers were set to medium sensitivity. SBS contained 130 mM NaCl, 5 mM KCl, 8 mM D‐glucose, 10 mM HEPES, 1.2 mM MgCl2 and 1.5 mM CaCl2, and the pH was adjusted to 7.4 with NaOH. The solution was filtered through a 0.2 μm bottle‐top filter prior to use and handled aseptically thereafter.
# For intracellular Ca^2+ (Ca^2+i) measurements, technical intra‐experiment replicates were used to improve confidence in the data. Analysis of individual experiments was performed to obtain mean ± SEM values. For collated analysis of independent experiments, where normal distributions were not evidenced by Shapiro–Wilk normality tests, non‐parametric distributions were assumed, and therefore, median values were used. […]
# mPIEZO1 [2] = molecular target: T1, mPIEZO1; assay: Pre-treatment with analogue before Yoda1 stimulus, Ca2+ assay in mPIEZO1-TREx cells; format: cell-based; details: for 0.5 μM Yoda1-evoked peak ΔCa2+i (ΔF340/380), median fold difference compared to DMSO pretreatment: mPIEZO1-TREx, 10 μM compound 30 min pretreatment before 0.5 μM Yoda1
# HeLa cells = assay: Intracellular Ca2+ measurement in HeLa cells with siRNA knockdown of PIEZO1/PIEZO2; format: cell-based, human; details: 10 μM; for Ca2+ response after PIEZO1 depletion / Ca2+ response after PIEZO2 depletion: HeLa cells; for Ca2+ response after PIEZO1 depletion: siPIEZO1; for Ca2+ response after PIEZO2 depletion: siPIEZO2
# Procedure: Hela (ATCC Cat #CRM‐CCL‐2, RRID:CVCL_0030) and HEK 293 (ATCC Cat #CRL‐1573, RRID:CVCL_0045) cells were purchased from ATCC and maintained in DMEM supplemented with 10% heat‐inactivated fetal calf serum, 100 U·ml^−1 penicillin and 100 μg·ml^−1 streptomycin (Sigma‐Aldrich).
# Cells were transfected using Opti‐MEM™ I Reduced Serum Medium (Thermo Fisher Scientific) and Lipofectamine 2000 (Thermo Fisher Scientific). For transfection of cells in six‐well plates, […] short‐interfering RNA (siRNA) (control siRNA [siCtrl]: Dharmacon ON‐TARGETplus Non‐targeting Control Pool, D‐001810‐10‐05; siRNA targeted to PIEZO2 expression [siPIEZO2]: Dharmacon ON‐TARGETplus SmartPool PIEZO2, L‐013925‐02‐0005; and PIEZO1: Sigma‐Aldrich, GCAAGUUCGUGCGCGGAUU[DT][DT]) and 3 μl of Lipofectamine 2000 complexed in 200 μl of Opti‐MEM were added to 0.8 ml cell culture medium per well. The culture medium was changed 4 h post transfection, and cells were used for experiments 48 h later.
# as §1
"Inhibition of the action of Yoda1 (mPIEZO1 [2]; mPIEZO1 channels, 10 μM for 30 min prior to Yoda1)",SMILES,"Peak ΔCa2+i (ΔF340/380), median fold difference compared to Yoda1 (mPIEZO1 [1])",Ca2+ response (agonist effect) (mPIEZO1 [1]),"0.5 μM Yoda1-evoked peak ΔCa2+i (ΔF340/380), median fold difference compared to DMSO pretreatment (mPIEZO1 [2])",EC50 (mPIEZO1 [1]) [nM],Ca2+ elevations in HeLa cells (HeLa cells),Ca2+ response after PIEZO1 depletion (HeLa cells),Ca2+ response after PIEZO2 depletion (HeLa cells),"Potency relative to Yoda1 (mPIEZO1 [1]; mPIEZO1, from EC50 values)"
failed to inhibit the action of Yoda1,O=C(O)c1ccccc1-c1nnc(SCc2c(Cl)cccc2Cl)s1 [KC157],−70.6 fold,inactive,+1.2 fold,–,–,–,–,–
–,O=C(O)c1ccc(-c2nnc(SCc3c(Cl)cccc3Cl)s2)cc1 [KC159],+1.1 fold,larger responses than Yoda1,−2.1 fold,280,evoked Ca^2+ elevations,partly suppressed,partly suppressed,–
–,O=C([O-])c1ccc(-c2nnc(SCc3c(Cl)cccc3Cl)s2)cc1.[K+] [KC289],+1.2 fold,larger responses than Yoda1,−2.8 fold,150,evoked Ca^2+ elevations,partly suppressed,partly suppressed,approximately four times more potent than Yoda1
–,"Clc1cccc(Cl)c1CSc1nnc(-c2cnccn2)s1 [Yoda1, 2‐[5‐[[(2,6‐dichlorophenyl)methyl]thio]‐1,3,4‐thiadiazol‐2‐yl]pyrazine]",–,–,–,600,evoked Ca^2+ elevations,partly suppressed,partly suppressed,–
